US7781421B2, “Neuroactive 13, 24-cyclo-18, 21-dinorcholanes and structurally related pentacyclic steriods” (Washington University, priority 2003, dated 2010)
Where “and” joins values, the source holds several entries; their conditions need not be identical. Identical values can stand only once. Like-named read-outs stand apart in the source and are kept apart here.

Tests used:
[1] = target: GABAA receptor ([35S]-TBPS binding site, rat brain cortical membranes); assay: Displacement of [35S]-TBPS binding, rat brain cortical membranes; details: 5 μM GABA, 2 nM [35S]-TBPS; ± standard error of the means
How it was run: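 Rat cortical P2 membranes (0.5 mg/mL protein) incubated 2 h at room temperature with 2 nM [35S]-TBPS, 5 μM GABA and steroid (1 nM–10 μM) in 200 mM NaCl/50 mM potassium phosphate, pH 7.4. Filter-bound radioactivity counted; IC50 from Hill equation fit, triplicate points.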

Xenopus laevis tadpoles = assay: Tadpole loss of righting (LRR) and swimming (LSR) reflexes; assay type: in vivo; details: 3 h equilibration at room temperature; for EC50: read-out: LSR EC50 (loss of swimming response)
How it was run: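 Groups of 10 early prelimb-bud Xenopus laevis tadpoles were held for 3 h at room temperature in oxygenated Ringer's containing compound (DMSO ≤0.1%). Loss of righting was scored as failure to right within 5 sec after flipping, and loss of swimming as failure to swim when touched. EC50 came from a Hill equation fit.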

[2] = target: T1, rat α1β2γ2 GABAA Receptor (Rattus norvegicus, UniProt P18508+P62813+P63138, INS375LLRMFSFK); assay: Xenopus oocyte two-electrode voltage-clamp electrophysiology; assay type: cell-based; details: for Oocyte electrophysiology, ratio of currents in presence/absence of compound, 10 μM: 10 μM compound co-applied with 2 μM GABA; for Oocyte electrophysiology, ratio of currents in presence/absence of compound, 10 μM / Oocyte electrophysiology, ratio of currents in presence/absence of compound, 0.1 μM / Oocyte electrophysiology, ratio of currents in presence/absence of compound, 1 μM: −70 mV; for Oocyte electrophysiology, ratio of currents in presence/absence of compound, 0.1 μM: 0.1 μM compound co-applied with 2 μM GABA; for Oocyte electrophysiology, ratio of currents in presence/absence of compound, 1 μM: 1 μM compound co-applied with 2 μM GABA; for Gating (10 μM), ratio of compound only current/2 μM GABA current: direct current gated by 10 μM compound in the absence of GABA
T1 construct: from linearized pBluescript vectors containing receptor coding regions; expressed in transfected cells; host or cells: Xenopus laevis oocytes injected with in vitro transcribed capped mRNA
How it was run: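 Oocytes injected with rat α1, β2, γ2L mRNA, voltage-clamped at −70 mV 2-5 days later in ND96. Compounds co-applied with 2 μM GABA for 20 s; peak current ratio with/without compound, n≥4 oocytes. (G): current from 10 μM compound alone, as ratio to 2 μM GABA current.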

T1 sequence (P62813 28-455, stated change not applied): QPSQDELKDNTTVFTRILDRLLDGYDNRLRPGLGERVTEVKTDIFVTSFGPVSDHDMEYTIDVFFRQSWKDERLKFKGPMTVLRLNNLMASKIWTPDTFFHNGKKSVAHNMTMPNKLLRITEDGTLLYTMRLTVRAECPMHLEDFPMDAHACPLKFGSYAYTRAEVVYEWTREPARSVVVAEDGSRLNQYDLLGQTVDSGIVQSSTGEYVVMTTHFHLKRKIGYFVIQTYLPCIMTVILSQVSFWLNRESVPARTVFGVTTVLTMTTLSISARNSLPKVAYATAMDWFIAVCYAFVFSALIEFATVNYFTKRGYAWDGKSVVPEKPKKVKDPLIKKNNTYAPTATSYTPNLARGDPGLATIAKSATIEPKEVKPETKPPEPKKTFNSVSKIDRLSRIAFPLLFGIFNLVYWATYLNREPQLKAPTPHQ
T1 sequence (P63138 26-474, stated change not applied): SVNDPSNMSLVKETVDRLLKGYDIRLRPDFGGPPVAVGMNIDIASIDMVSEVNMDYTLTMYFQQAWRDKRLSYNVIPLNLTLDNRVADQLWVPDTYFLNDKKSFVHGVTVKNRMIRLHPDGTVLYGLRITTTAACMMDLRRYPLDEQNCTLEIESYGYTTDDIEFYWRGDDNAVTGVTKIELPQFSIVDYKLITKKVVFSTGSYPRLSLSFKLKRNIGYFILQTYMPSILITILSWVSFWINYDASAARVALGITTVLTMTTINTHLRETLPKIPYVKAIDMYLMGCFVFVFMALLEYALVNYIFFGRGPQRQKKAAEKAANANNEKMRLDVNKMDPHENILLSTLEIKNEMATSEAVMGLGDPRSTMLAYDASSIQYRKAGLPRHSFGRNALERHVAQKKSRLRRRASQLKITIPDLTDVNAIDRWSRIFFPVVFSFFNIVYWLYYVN
T1 sequence (P18508 with tags, fused parts or gaps INS375LLRMFSFK): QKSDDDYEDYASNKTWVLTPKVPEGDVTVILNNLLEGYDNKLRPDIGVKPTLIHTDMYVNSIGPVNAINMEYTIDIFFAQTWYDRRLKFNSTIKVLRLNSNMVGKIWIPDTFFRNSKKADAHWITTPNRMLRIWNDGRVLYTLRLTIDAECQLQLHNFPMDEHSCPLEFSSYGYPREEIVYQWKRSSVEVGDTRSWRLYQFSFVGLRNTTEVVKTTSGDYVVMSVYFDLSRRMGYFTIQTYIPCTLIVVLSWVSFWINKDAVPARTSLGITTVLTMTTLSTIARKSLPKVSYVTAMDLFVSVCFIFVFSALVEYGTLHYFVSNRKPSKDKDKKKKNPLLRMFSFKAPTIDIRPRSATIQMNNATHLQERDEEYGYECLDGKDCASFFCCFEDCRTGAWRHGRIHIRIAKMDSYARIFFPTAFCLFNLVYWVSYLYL

Row | SMILES | IC50 [1] [µM] | melting point | LRR ED50 (loss of righting response) (Xenopus laevis tadpoles) | EC50 (Xenopus laevis tadpoles; Xenopus laevis, 3 h) [µM] | Oocyte electrophysiology, ratio of currents in presence/absence of compound, 10 μM [2] | Oocyte electrophysiology, ratio of currents in presence/absence of compound, 0.1 μM [2] | Oocyte electrophysiology, ratio of currents in presence/absence of compound, 1 μM [2] | Gating (10 μM), ratio of compound only current/2 μM GABA current [2] | EC50 (Xenopus laevis tadpoles) [µM] | LSR EC50 (loss of swimming response) (Xenopus laevis tadpoles)
1 | C[C@]12CC[C@@H](O)C[C@@H]1CCC1C3CC[C@@H]4CC[C@@H](C#N)C[C@]34CCC12 (stereo partly drawn) [Compound 49, (3α,5α,20R)-3-Hydroxy-13,24-cyclo-18,21-dinorcholane-23-carbonitrile] | 0.574 ± 0.026 | 182 to 183 °C | 0.35 ± 0.09 µM | > 10 | 1.3 ± 0.1 |  |  |  |  | 
2 | C[C@]12CC[C@@H](O)C[C@@H]1CCC1C3CC[C@@H]4C[C@@H](C#N)CC[C@]34CCC12 (stereo partly drawn) [Compound 44, (3α,5α,22S)-3-Hydroxy-13,24-cyclo-18,21-dinorcholane-22-carbonitrile] | 0.585 ± 0.03 | 199 to 200 °C | 0.30 ± 0.03 µM | 6.28 ± 1.08 | 4.01 ± 0.42 | 1.19 ± 0.02 | 1.14 ± 0.13 | 0.03 ± 0.01 |  | 
3 | CC12CCC(O)CC1CCC1C2CCC23C(=O)CCCC2CCC13 (stereo not drawn) [Compound 5a, (3α,5α)-3-Hydroxy-13,24-cyclo-18,21-dinorcholan-24-one] | 0.301 ± 0.02 | 203 to 204 °C | 0.32 ± 0.02 µM |  | 10.73 ± 1.87 | 1.22 ± 0.23 | 3.05 ± 0.79 | 0.39 ± 0.69 | 1.73 ± 0.03 | 
4 | CC12CCC(O)CC1CCC1C2CCC23C=CC(=O)CC2CCC13 (stereo not drawn) [Compound 30a, (3α,5α)-3-Hydroxy-13,24-Cyclo-18,21-dinorchol-23-en-22-one] | 1.26 ± 0.1 | 168 to 170 °C | 0.73 ± 0.16 µM | 5.48 ± 0.09 | 5.07 ± 0.98 | 1.12 ± 0.08 | 1.54 ± 0.30 | −0.04 ± 0.05 |  | 
5 | C=C1CCC[C@]23CCC4C(CC[C@H]5C[C@H](O)CC[C@]45C)C2CC[C@H]13 (stereo partly drawn) [Compound 51, (3α,5α)-20-Methylene-13,24-cyclo-18,21-dinorcholan-3-ol] | 0.181 ± 0.009 | 211 to 213 °C | >10 µM |  | 0.95 ± 0.05 | 0.90 ± 0.15 | 0.93 ± 0.08 | −0.06 ± 0.06 |  | None @ 10
6 | C[C@]12CC[C@@H](O)C[C@@H]1CCC1C3CC[C@@H]4C(=O)CCC[C@]34CCC12 (stereo partly drawn) [Compound 2a, (3α,5α)-3-Hydroxy-13,24-cyclo-18,21-dinorcholan-20-one] | 0.514 ± 0.064 | 200 to 202 °C | 1.36 ± 0.20 µM | 5.45 ± 0.07 |  | 1.01 ± 0.03 | 1.44 ± 0.03 | 0 ± 0.1 |  | 
7 | CC12CCC(O)CC1CCC1C2CCC23CCC(=O)C2CCC13 (stereo not drawn) [Compound 89, (3α,5α)-3-Hydroxy-18,21-cyclopregnan-20-one] | 0.204 ± 0.036 | 176 to 178.5 °C | 2.63 ± 0.07 µM | 5.48 ± 0.15 | 4.54 ± 0.64 | 0.81 ± 0.02 | 1.02 ± 0.07 | 0.01 ± 0.00 |  | 
8 | CC12CCC(O)CC1CCC1C2CCC23C=CC(=O)C2CCC13 (stereo not drawn) [Compound 94, (3α,5α)-3-Hydroxy-18,21-cyclopregn-18(21)-en-20-one] | 0.745 ± 0.075 | 139 to 141 °C | 3.37 ± 0.16 µM | 9.52 | 2.78 ± 0.13 | 0.96 ± 0.02 | 1.41 ± 0.09 | −0.04 ± 0.02 |  | 
9 | C[C@]12CC[C@@H](O)C[C@@H]1CCC1C3CC[C@@H]4CCC=C[C@]34CCC12 (stereo partly drawn) [Compound 61, (3α,5α)-13,24-Cyclo-18,21-dinorchol-23-en-3-ol] | 2 ± 0.19 | 166.5 to 169 °C | None @ 10 |  | 1.72 ± 0.26 | 1.28 ± 0.08 | 1.47 ± 0.10 | 0.19 ± 0.10 |  | None @ 10
10 | CC12CCC(O)CC1CCC1C2CCC23CCC=CC2CCC13 (stereo not drawn) [Compound 13b, (3α,5β)-13,24-Cyclo-18,21-dinorchol-20(22)-en-3-ol] | 0.484 ± 0.103 | 168 to 169 °C | 1.28 ± 1.80 µM | > 10 | 3.48 ± 1.01 | 1.44 ± 0.17 | 2.09 ± 0.35 | −0.05 ± 0.09 |  | 
11 | C[C@]12CC[C@@H](O)C[C@@H]1CCC1C3CC[C@@H]4/C(=C/C#N)CCC[C@]34CCC12 (stereo partly drawn) [Compound 63, (3α,5α,20E)-3-Hydroxy-13,24-cyclo-18-norcholan-20-ene-21-carbonitrile] | 0.011 ± 0.0018 | 210 to 212 °C and 214 to 216 °C | 0.04 ± 0.00 µM | 0.08 ± 0.02 | 17.82 ± 3.75 | 6.29 ± 1.71 | 12.34 ± 3.28 | 0.01 ± 0.02 |  | 
12 | CC12CCC(O)CC1CCC1C2CCC23CC=CC(=O)C2CCC13 (stereo not drawn) [Compound 11a, (3α,5α)-3-Hydroxy-13,24-cyclo-18,21-dinorchol-22-en-20-one] | 0.373 ± 0.02 | 230 to 232 °C | 3.38 ± 0.67 µM |  | 9.07 ± 1.86 | 1.49 ± 0.20 | 5.87 ± 1.52 | 0.72 ± 0.03 |  | None @ 10
13 | C[C@]12CC[C@@H](O)C[C@@H]1CCC1C3CC[C@@H]4[C@@]5(CCC[C@]34CCC12)CO5 (stereo partly drawn) [Compound 73, (3α,5α,20S)-20,21-Epoxy-13,24-cyclo-18-norcholan-3-ol] | 1.29 | 186 to 192 °C (dec.) | 4.00 ± 1.08 µM |  | 4.84 ± 1.05 | 0.88 ± 0.05 | 2.54 ± 0.40 | −0.02 ± 0.04 |  | None @ 10
